Measurements reported in patent publication US20130142879A1, “SUSPENSION FORMULATIONS” (INNOVATA BIOMED LIMITED, priority 2008, published 2013).

Legend:
[1] = Solubility of drugs within HFA 227 with ethanol addition
[2] = Solubility of drugs within HFA 134a with ethanol addition
[3] = Solubility of suspension stabilisers in HFA 134a or HFA 227 with ethanol and additives; assay type: physicochemical
Protocol: Trehalose has been determined to be insoluble (observed to be <0.12 μg/50 μl) in HFA 134a or HFA 227 with up to 12% w/w ethanol and only slightly soluble in 30% w/w ethanol (3.3 μg/[…] in HFA 134a, 2.7 μg/50 μl in HFA 227).
Leucine has been determined to be insoluble (observed to be <0.08 μg/50 μl) in HFA 134a or HFA 227 with up to 30% w/w ethanol.

| SMILES | Solubility within HFA 227 ([1]; EtOH addition 0 % w/w) | Solubility within HFA 227 ([1]; EtOH addition 1 % w/w) | Solubility within HFA 227 ([1]; EtOH addition 5 % w/w) | Solubility within HFA 134a ([2]; EtOH addition 0 % w/w) | Solubility within HFA 134a ([2]; EtOH addition 1 % w/w) | Solubility within HFA 134a ([2]; EtOH addition 5 % w/w) | also measured |
| --- | --- | --- | --- | --- | --- | --- | --- |
| CCCC1O[C@@H]2C[C@H]3[C@@H]4CCC5=CC(=O)C=C[C@]5(C)[C@H]4[C@@H](O)C[C@]3(C)[C@]2(C(=O)CO)O1 (some centres unmarked) [Budesonide] | 1.66 μg per 50 μl | 5.61 μg per 50 μl | 45.16 μg per 50 μl | – | – | – | – |
| CCC(=O)O[C@]1(C(=O)SCF)[C@H](C)C[C@H]2[C@@H]3C[C@H](F)C4=CC(=O)C=C[C@]4(C)[C@@]3(F)[C@@H](O)C[C@@]21C [Fluticasone Propionate] | 0.22 μg per 50 μl | 0.83 μg per 50 μl | 4.78 μg per 50 μl | – | – | – | Solubility within HFA 227 ([1]; EtOH addition 0.2 % w/w): 0.23 μg per 50 μl |
| COc1ccc(CC(C)NCC(O)c2ccc(O)c(NC=O)c2)cc1 (centres unmarked) [Formoterol] | 0.00 μg per 50 μl | 0.02 μg per 50 μl | 0.23 μg per 50 μl | 0.00 μg per 50 μl | 0.03 μg per 50 μl | 0.73 μg per 50 μl | – |
| CC(C)C[C@H](N)C(=O)O [Leucine] | – | – | – | – | – | – | Solubility ([3]; 3% w/w ethanol with 0.5% w/w propylene glycol or 0.01% w/w oleic acid, HFA 134a or HFA 227): < 0.08 μg/50 μl; Solubility ([3]; 12% w/w ethanol with 1.2% w/w water, HFA 134a or HFA 227): < 0.08 μg/50 μl; Solubility ([3]; HFA 134a or HFA 227 with up to 30% w/w ethanol): < 0.08 μg/50 μl |
| C[N+]1(C)[C@@H]2C[C@@H](OC(=O)C(O)(c3cccs3)c3cccs3)C[C@H]1[C@@H]1O[C@@H]12 [Tiotropium Bromide] | 0.00 μg per 50 μl | 0.00 μg per 50 μl | 0.07 μg per 50 μl | 0.00 μg per 50 μl | 0.01 μg per 50 μl | 0.33 μg per 50 μl | – |
| OC[C@H]1O[C@H](O[C@H]2O[C@H](CO)[C@@H](O)[C@H](O)[C@H]2O)[C@H](O)[C@@H](O)[C@@H]1O [Trehalose] | – | – | – | – | – | – | Solubility ([1]; 30% w/w ethanol in HFA 227): 2.7 μg/50 μl |
